Measurements reported in patent US5747239A, “Synthetic peptides specific for the detection of antibodies to HCV, diagnosis of HCV infection and preventions thereof as vaccines” (United Biomedical, Inc., priority 1994, dated 1998).

What was measured:
Format in all cases: binding, human
antibodies to HCV [1] = assay: Peptide ELISA for relative immunoreactivity, 8 member HCV serum panel (Panel I); set-up: relative immunoreactivity value: concentration or dose not given beside the values
How it was run: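 Wells coated with peptides at 5 ug/mL in 10 mM NaHCO3 pH 9.5, gelatin-blocked, then probed with eight HCV antibody-positive sera at 1:20 for 15 min at 37° C. HRP goat anti-human IgG (1:1800, 15 min), OPD/H2O2 substrate, acid-stopped, A492 read; immunoreactivity expressed relative to peptide IIH.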

antibodies to HCV [2] = assay: NS-5 peptide ELISA, group of 5 HCV positive sera
Description: Wells of 96-well plates were coated for 1 hour at 37° C. with each of the three peptides derived from the NS-5 region of HCV (designated as pep4, pep5 and pep6).

antibodies to HCV [3] = assay: EIA of pep3 after different extraction conditions following HF cleavage; details: for % Decrease: Pep3' versus Pep3
Excerpt: Peptide extraction conditions after HF cleavage were altered to test for their effect on peptide immunopotency after HF cleavage. Pep3 (or 279A) was extracted with acetic acid at pH 2, whereas pep3' was extracted with ammonium bicarbonate at pH 8.

[4] = tested on: antibodies to peptide VIIIE; assay: Presence of antibodies to peptide VIIIE in sera

## DPSHITAEAAGRRLARGSPPSVASSSASQLSAPSLKATCTANHDSP [Pep4]
Antibodies to HCV [1]; NS-5 peptides (Table 12), Panel I, pep11 as a standard
  % IP: 17.1%
Antibodies to HCV [2]; NS-5 peptides, 5 HCV positive sera, Pep5 = 100
  % Relative Immunoreactivity: 28.6%
Antibodies to HCV [2]; Sample No. 1
  EIA reading per sample: 0.468
Antibodies to HCV [2]; Sample No. 2
  EIA reading per sample: 0.659
Antibodies to HCV [2]; Sample No. 3
  EIA reading per sample: 0.675
Antibodies to HCV [2]; Sample No. 4
  EIA reading per sample: 0.063
Antibodies to HCV [2]; Sample No. 5
  EIA reading per sample: 0.144

## Pep3': pep3 (279A) sequence extracted with ammonium bicarbonate at pH 8 after HF cleavage (GCSGGAYDIIICDECHSTDATSILGIGTVLDQAETAG)
Antibodies to HCV [1]; Panel I
  share of the panel reactive: half of the panel is reactive
Antibodies to HCV [1]; Panel I, compared with peptide VIIIE
  relative immunoreactivity value: 23.9%
Antibodies to HCV [1]; additional reactive samples
  absorbances of some additional reactive samples: > 2000 mA
Antibodies to HCV [3]; NRC: Negative Control
  A492 nm (mA) by EIA: 1 mA
Antibodies to HCV [3]; SRC
  % Decrease: 77.6%
Antibodies to HCV [3]; WRC
  % Decrease: 89.6%
Antibodies to HCV [3]; sample #1
  % Decrease: 78.8%
Antibodies to HCV [3]; sample #2
  % Decrease: 90.0%
Antibodies to HCV [3]; sample #3
  % Decrease: 91.5%
Antibodies to HCV [3]; sample #4
  % Decrease: 99.3%
Antibodies to HCV [3]; sample #5
  % Decrease: 88.0%

B1: STIPKPQRKTKRNTNRRPQDVKFPGGGQIVGGVYLLPRRGPRLGVRATRKTSERSQPRGRR (peptide)
peptide: STIPKPQRKTKRNTNRRPQDVKFPGGGQIVGGVYLLPRRGPRLGVRATRKTSERSQPRGRR
Antibodies to HCV [1]; Panel I serum No. 1, peptide coated at 5 ug/mL, serum 1:20
  A492 nm: 2.745
Antibodies to HCV [1]; Panel I serum No. 2
  A492 nm: 2.208
Antibodies to HCV [1]; Panel I serum No. 3
  A492 nm: 2.468
Antibodies to HCV [1]; Panel I serum No. 4
  A492 nm: 3.032
Antibodies to HCV [1]; Panel I serum No. 5
  A492 nm: 0.054
Antibodies to HCV [1]; Panel I serum No. 6
  A492 nm: 2.108
Antibodies to HCV [1]; Panel I serum No. 7
  A492 nm: 0.730
Antibodies to HCV [1]; Panel I serum No. 8
  A492 nm: 3.006
Antibodies to HCV [1]; Panel I, 8 samples
  samples of the HCV serum panel that reacted: 7 out of 8
Antibodies to HCV [1]; Panel I, peptide IIH as the reference
  % Relative Immunoreactivity: 98%
Antibodies to HCV [1]; capsid peptides, Panel I, relative to VIIIE, coated at 5, 1 and 0.2 μg/mL
  % Relative Immunoreactivity: 100.0%
Antibodies to HCV [1]; sum over Panel I No. 1 to 8
  A492 nm Total: 16.351
[4]; HBsAg positive individuals
  antibodies to the peptide present in: 15-20%
[4]; normal controls
  antibodies to the peptide present in: 1-2%
